# Like-named read-outs stand apart in the source and are kept apart here.
# What was measured:
# Assay type in all cases: cell-based
# [1] = system: albumin (secreted, cellular toxicity marker); assay: Albumin (in vitro cellular tox marker), multiplex assay, PHH; conditions: human, primary human hepatocytes (PXB-PHH) infected with HBV, patient-derived HBV (GT D), read-out: In vitro tox albumin IC50 (μM) Median
# Description: (§1) Fresh primary human hepatocytes (PXB-PHH) harvested from humanized mice (uPA/SCID mice)—herein called PHH—were obtained from PhoenixBio Co., Ltd (Japan). Cells were seeded on a collagen I-coated plate at the following cell density: 35,000 cells/well (384-well), 70,000 cells/well (96-well), or, 400,000 cells/well (24-well) in modified hepatocyte clonal growth medium (dHCGM). dHCGM is a DMEM medium containing 100 U/ml Penicillin, 100 μg/ml Streptomycin, 20 mM Hopes, 44 mM NaHCO3, 15 μg/ml L-proline, 0.25 μg/ml insulin, 50 nM Dexamethazone, 5 ng/ml EGF, 0.1 mM Asc-2P, 2% DMSO and 10% FBS (Ishida et al., 2015). Cells were cultured at 37° C. incubator in a humidified atmosphere with 5% CO2. Culture medium was replaced 24 h post-plating and every 2 days until harvest.
# (§2) Following 4 day of maturation with 1 μM MB-1, HLC were incubated with HBV (purified from CHB individuals) at multiplicity of infection (MOI) 10-40 without PEG for 24 hr; virus inoculum was removed the following day. […] Compound treatment in HLC and PHH was started at day 3 post infection. Compound (in powder) was dissolved in DMSO; the final concentration of DMSO added to cells is 1%. Fresh compound was replenished every 2 day until cells were harvested at day 10 (PHH), or day 14 (HLC). Compound effect on HBV and cellular toxicity was measured by multiplex assay (HBsAg, HBeAg, albumin), branched DNA (pgRNA), or digital PCR (cccDNA) and depicted as % of inhibition compared to DMSO control. Graphs were prepared using Spotfire software.
# (§3) A custom, Luminex-based multiplex assay that simultaneously measured HBeAg, albumin, and HBsAg was developed by Radix BioSolutions (Georgetown, Tex.). This is a sandwich immunoassay; each capture antibody was coupled with xMAP™ Luminex magnetic beads. The dynamic ranges of analyte detection are as follows: HBeAg (1-316 ng/ml), albumin (3.1-10,000 ng/ml), and HBsAg (0.1-100 ng/ml) with coefficient variant (CV) […]. Samples were read on FlexMAP 3D (Luminex) and analyzed by Genedata software.
# pgRNA = pgRNA assay (branched DNA), HBV-infected PHH; conditions: patient-derived HBV (GT D), read-out: pgRNA IC50 (μM) Median
# Description: as §1, §2
# Levels of pgRNA in infected cells (96-well plate) were measured using QuantiGene Singleplex 2.0 assay (Affymetrix), a hybridization-based assay that utilizes the xMAP™ Luminex magnetic beads and branched DNA (bDNA) signal amplification technology. The assay is performed in 96-well plate according to manufacturer's recommendation. Briefly, cells were lysed and lysates were incubated with HBV probe sets panel at 50-55° C. for 30 min then stored at −80° C. Signal amplification is achieved via sequential hybridization of PreAmplifier, Amplifier, and Label Probe. After adding Streptavidin phycoerythrin (SAPE) substrate, the signal is read using a FlexMap 3D (Luminex) instrument.
# HBsAg = assay: HBsAg, multiplex assay, HBV-infected PHH; conditions: for IC50: Hepatitis B virus, read-out: HBsAg IC50 (μM) Median, PHH, patient-derived HBV (GT D)
# Description: as §1, §2, §3
# cccDNA = cccDNA assay (digital PCR), HBV-infected PHH; conditions: for IC50: Hepatitis B virus, patient-derived HBV (GT D), read-out: cccDNA IC50 (μM) Median
# Description: as §1
# Following 4 day of maturation with 1 μM MB-1, HLC were incubated with HBV (purified from CHB individuals) at multiplicity of infection (MOI) 10-40 without PEG for 24 hr; virus inoculum was removed the following day. HBV infection in PHH was performed at MOI 40+4% PEG. Compound treatment in HLC and PHH was started at day 3 post infection. Compound (in powder) was dissolved in DMSO; the final concentration of DMSO added to cells is 1%. Fresh compound was replenished every 2 day until cells were harvested at day 10 (PHH), or day 14 (HLC). Compound effect on HBV and cellular toxicity was measured by multiplex assay (HBsAg, HBeAg, albumin), branched DNA (pgRNA), or digital PCR (cccDNA) and depicted as % of inhibition compared to DMSO control. Graphs were prepared using Spotfire software.
# HBV-infected cells (in 384- or 96-well plate) were lysed with Cells-to-CT Lysis Reagents according to manufacturer's instruction (Thermo Scientific). To remove excess of RC-DNA, samples were digested with T5 exonuclease (10 U) (New England Biolabs), at 37° C. for 1 hr; enzyme was inactivated by heating the samples at 80° C. for 15 min. DNA samples (1.2 μl) were added into the digital PCR Master Mix (QuantStudio Digital PCR Kit, Thermo Scientific) containing cccDNA primers 5′-[…] (forward), 5′-[…] (reverse), and […] (probe) (Werle-Lapostolle et al., 2004) in a total volume 5 μl, and loaded into dPCR array using AccuFill System (AB). Each sample was loaded into 4 subarrays/256 through-holes. Digital PCR assay was run on QuantStudio 12K Flex (AB) and data was analyzed by Digital Suite Software (AB).
# HBeAg = assay: HBeAg, multiplex assay, HBV-infected PHH; conditions: for IC50: Hepatitis B virus, read-out: HBeAg IC50 (μM) Median, PHH, patient-derived HBV (GT D)
# Description: as §1, §2, §3
# HBV DNA = HBV DNA in culture medium of HBV-infected PHH; conditions: PHH, patient-derived HBV GT D, MOI 40, treatment from day 3, day 10 pi
# Description: FIG. 8: Establishment of dPCR assay for cccDNA quantification. […] A 3.2-kb, linearized plasmid HBV is used as a standard curve for relative quantification of HBV DNA by TaqMan-PCR. […] (B) Testing primer & PCR specificity and removal of excess RC-DNA. In contrast to TaqMan-PCR (relative quantification method), digital PCR (dPCR) is an absolute quantification method without the need of standard curve. […] First step—Testing primer and PCR specificity. Serum-derived HBV (contains RC-DNA, devoid of cccDNA) was used as a DNA template for dPCR using 2 sets of primers (for HBV core and cccDNA region) (Werle-Lapostolle et al., 2004). Samples were amplified by dPCR on QuantStudio 12K Flex Real-Time PCR System (AB); 4 subarrays (256 through-holes) were used for each sample. […] Second step—Removal of excess RC-DNA. PHH seeded in 96-well were infected with HBV. At day 6 pi, cell lysates were digested with Plasmid safe, ATP-dependent, DNAse (PSAD), T5 exonuclease, or, T5 exonuclease followed by EcoRI, for 1 hr at 37° C. Samples were amplified by dPCR using cccDNA primers on QuantStudio 12K Flex Real-Time PCR System (AB); 4 subarrays (256 through-holes) were used for each sample. […] Fresh medium and compound was replenished every 2 day. At day 10 pi, culture media were harvested and measured for HBV DNA, HBsAg, and HBeAg. Albumin was used as a surrogate of in vitro tox marker. Cells were lysed and treated with T5 exonuclease, cccDNA was then measured by dPCR on QuantStudio 12K Flex Real-Time PCR System (AB); 4 subarrays (256 through-holes) were used for each sample. […] Cells were treated with compounds at the indicated concentrations starting from day 3 post infection (patient-derived HBV, GT D). Fresh medium and compound was replenished every 2 day. Cells were harvested at day 10 pi; viral markers and albumin were measured from culture medium.
# HBV from sera of CHB individuals were purified using OptiPrep™ (Axis-Shield, Norway) density gradient. Briefly, OptiPrep™ stock solution (60%) was diluted to 50% and 10% in PBS; equal volume of each solution was then added into SW41 tubes (BD Biosciences). Linear gradient was performed by placing the tubes on Gradient Master 108™ (Biocomp) at setting: 800, 25 rpm for 30″. Two hundred microliter (200 μl) of serum was overlaid on the top of gradient and samples were centrifuged at 100,000×g for 2 hours at 4° C. […] Fractions containing the peak of HBV DNA were pooled and used as virus inoculum for all infection experiments. All fractions were stored at −80° C. until used.
# Fresh primary human hepatocytes (PXB-PHH) harvested from humanized mice (uPA/SCID mice)—herein called PHH—were obtained from PhoenixBio Co., Ltd (Japan).
# [2] = PHH, patient-derived HBV GT D, MOI 40, treatment from day 3, day 10 pi
Structure (SMILES),IC50 at 7 days [1],IC50 (pgRNA; Hepatitis B virus),IC50 (HBsAg),IC50 (cccDNA),IC50 (HBeAg),IC50 (pgRNA),effect on HBV DNA (HBV DNA),effect on HBsAg (other viral markers) (HBsAg; [2]),"effect on cccDNA (other viral markers) (cccDNA; patient-derived HBV GT D, MOI 40, treatment from day 3, day 10 pi, dPCR)",effect on HBeAg (other viral markers) (HBeAg; [2])
CC(C)(CO)NC(=O)c1c[nH]c2ncc(C3CC3)nc12 [compound 1],18.7 µM,14.2 µM,0.17 µM,52.7 µM,0.17 µM,–,–,–,–,–
O=C(NC1(CO)CCCC1)c1c[nH]c2ncc(C3CC3)nc12 [compound 2],24.2 µM,–,0.68 µM,30.1 µM,0.68 µM,–,–,–,–,–
CC(C)(O)C(CCO)NC(=O)c1c[nH]c2ncc(C3CC3)nc12 (stereo not drawn) [compound 3],33.4 µM,12.8 µM,3.62 µM,43.7 µM,3.58 µM,–,–,–,–,–
CC[C@@H](CO)NC(=O)c1c[nH]c2ncc(C3CC3)nc12 [compound 4],48 µM,< 10 µM,0.68 µM,63.7 µM,0.68 µM,6.93 µM,–,–,–,–
C[C@H](CO)NC(=O)c1c[nH]c2ncc(C3CC3)nc12 [compound 5],135 µM,≥ 100 µM,5.61 µM,160 µM,2.95 µM,–,–,–,–,–
O=C(NC1(CO)CCOCC1)c1c[nH]c2ncc(C3CC3)nc12 [compound 6],≥ 166 µM,15.7 µM,0.75 µM,≥ 166 µM,0.49 µM,–,–,–,–,–
C[C@@H](CO)NC(=O)c1c[nH]c2ncc(C3CC3)nc12 [compound 8],31.9 µM,–,1.22 µM,30.8 µM,2.29 µM,–,–,–,–,–
CC(C)(O)C(C)(C)NC(=O)c1c[nH]c2ncc(C3CC3)nc12 [compound 9],21.3 µM,–,0.51 µM,49.2 µM,0.68 µM,–,–,–,–,–
"C=C1[C@H](CO)[C@@H](O)C[C@@H]1n1cnc2c(=O)[nH]c(N)nc21 [entecavir, reference compound]",–,–,–,–,–,–,highly potent,no effect,no effect,no effect
